For data set [1] the following is noted: cited from earlier work.
For data set [2] the following is noted: cited from earlier work. The source holds these as a separate data set.
For data set [3] the following is noted: I = 0.16 M NaCl, uncertainties 1σ; cited from earlier work.
Data set [4] in a line: Stability constants reported in literature. Conditions: across the lanthanide series. The class given is binding.
Data set [5] in a line: Potentiometric titration, acid dissociation constants. It is filed as physicochemical. Conditions: aqueous 2.0 M (Na+/H+)ClO4 electrolyte solution. As for the experimental part:
All potentiometric titrations were run using a Mettler Toledo T90 autotitrator equipped with an Orion Ross Semi-micro glass electrode with the junction stabilization solution changed to 5.0 M NaCl to prevent precipitation with perchlorate media. All titrations were performed under a hydrated nitrogen atmosphere. The forward titration measurements (acidic titrand, basic titrant) of H4octapa in nitrate electrolyte medium were performed as described previously due to the limited solubility of this ligand in a 2 M (Na^+/H^+)ClO4 medium. Acid dissociation constants of H4octapa in perchlorate electrolyte medium were also determined by titrating in reverse (basic titrand, acidic titrant) to alleviate the solubility concerns. Titrations of H4pypa-peg were performed in reduced-volume glass titration cups (10 mL nominal) due to the limited supply of this ligand. All potentiometric titrations were run in triplicate. The choice of using p[H^+] was explained in Heathman et al.[15], and the calibration of the p[H^+] scale utilized Gran analysis through titration of a strong acid with the base used in the potentiometric titrations[29]–[31]. Potentiometric titration data was modeled and analyzed using Hyperquad2013 to determine acid dissociation and metal complexation stability constants[32],[33].
Changes in hydrogen ion concentration were monitored using a glass electrode for a solution of H4octapa as either NaOH or HClO4 were titrated into the solutions. […] The experimental potentiometric curve collected for a forward titration of H4octapa in (Na^+/H^+)NO3 is presented in Fig. 3A, alongside the distribution curves for the identified HnL species. Following those studies, the acid/base conditions were reversed and octapa^4− was titrated in 2.0 M (Na^+/H^+)ClO4 using HClO4 (SI Figure S7). The potentiometric curves are well respresented by five proton dissociation equilibria. The calculated equilibrium constants correspond with the protonation reactions for two aliphatic amines, two pyridine nitrogens, and one carboxylate group with the protonation sequence described by Eq. (2). The acid dissociation constants (pKa = − log10Ka) for H4octapa are reported in Table 1 alongside previously reported values in the literature.
The experimental potentiometric titration curve and the distribution curves for the associated HnL species for H4pypa-peg are presented in Fig. 3B. […] For comparison, the protonation equilibria of H4edta were also studied in 2.0 M (Na^+/H^+)ClO4. The pKa values for H4edta are listed in Table 2 and collected potentiometric titration curves (forward and reverse) are presented in SI Figure S8. For H4pypa-peg coordination pocket the protonation of H9L^5+, H7L^3+, and H6L^2+ cannot be characterized using a glass electrode. The H6L^2+ species likely represents a protonated carboxylate group, while H5L^+ and H4L may describe the pyridinecarboxylate nitrogens. The equilibrium involving H3L^− likely describes the dissociation of the protonated pyridine nitrogen, while the two most basic species in this ligand (HL^3− and H2L^2−) are likely the bridging amines in the H4pypa-peg backbone. Equation (3) describes the protonation sequence for H4pypa-peg.3 H10-aL^+6-a⇆H9-aL^+5-a+H^+Ka=H^+·H9-aL^+5-a/H10-aL^+6-aa=1…9

Data set [6] is described as follows: Spectrophotometric titration. The class given is binding. The note with it: spectrophotometrically determined in 2.0 M (Na+/H+)ClO4, 20 °C. The source says:
Changes in the optical absorption characteristics of Nd^3+ were monitored using a Cary 6000i UV/Vis–NIR Spectrometer (Agilent) using 1 cm semimicro quartz cuvettes (Starna) in double-beam mode, where the ^4I9/2 → ^4G5/2, ^2G7/2 transitions[34] were monitored between 560 and 605 nm with a 0.075 nm interval and 1.0 nm spectral bandwidth. Changes in the optical absorption characteristics of ^243Am^3+ and ^248Cm^3+ were monitored using a Flame-S-VIS–NIR-ES spectrometer coupled to a DH-2000-BAL dual-mode light source (Ocean Optics) with a single 1 cm semimicro quartz cuvette (Starna). The light source and spectrometer were optically coupled to the CUV sample (Ocean Optics) holder using 2 m fiberoptics (200 μm) and the parameters for acquisition were 0.369 nm interval and 1000 scans averaged with an integration time/scan 1.08 ms (total acquisition time ~ 1 s). The complexation of Am^3+ with the ligands was monitored in the 495–525 nm spectral region, looking at the ^7F0′ → ^5L6′ transition[23],[35]. For Cm^3+, ligand complexation was monitored in the 365–410 nm spectral region, looking at the ^8S7/2 → ^2Ji (i = {15}, {13,9}, {11,17}) manifold transitions[24],[25],[36]. Changes in aqueous p[H^+] were monitored throughout each titration step using a Gran-calibrated Orion Ross Semi-micro glass electrode. Baseline correction was applied to all datasets and was typically a simple linear subtraction. However, in the case of the ^248Cm/H4pypa-peg spectra, the tail end of the ligand absorption overlapped the hypersensitive Cm peaks. In this case the background correction was applied using a 5th-order empirical polynomial. Finally, the spectroscopic data was analyzed using the HypSpec software package[33],[37]. Full details of the titrand and titrant solutions for each titration are included in the Supplemental Information.
The coordination of Nd^3+ by H4octapa and H4pypa-peg was also studied using spectroscopic methods. Figures 5A, B show the collected spectrophotometric signatures for H4octapa and H4pypa-peg, respectively.4 M^3++L^4-⇆ML^-β101=ML^-/[M^3+]L^4- 5 M^3++H^++L^4-⇆MHLaqβ111=MHLaq/[M^3+L^4-H^+]
Optical absorption features of ^4I9/2 → ^4G5/2, ^2G7/2 transitions for Nd^3+ are perturbed due to the introduction of increasing quantities of complexants, resulting in characteristic red-shifted changes. In Fig. 5A a broad absorption band with λmax = 577 nm is distinctly different to the optical absorption of free Nd^3+ metal in Fig. 5B. The differences can be attributed to the nitrate complexation of Nd^3+ as the spectrophotometric titration with H4octapa was performed in 2.0 M (Na^+/H^+)NO3. […] The HypSpec interpretation of the Nd/pypa-peg titration points to the presence of three absorbing species: Nd^3+, NdHL(aq), and NdL^−. The conditional stability constants obtained spectroscopically are listed in Table 3, showing good agreement with the stability constants determined using potentiometry. The complex stability constants for structurally similar APC ligands found in the literature are also presented (H4pypa[18] and H4py4pa[57]).
2. Spectrophotometric titration parameters
Nd3+: The titrand solution consisting of 1.980 mL of 7.57 mM Nd(ClO4)3 at p[H+] = 1.61 was blended with 1.965 mL of titrant solution containing 7.62 mM Nd3+, 18.57 mM H4octapa, […]
Am3+: The titrand solution consisting of 0.842 mL of 0.810 mM Am(ClO4)3 at p[H+] =1.66 was blended with 0.811 mL of titrant solution containing 0.815 mM Am3+, 8.95 mM H4octapa, at p[H+] ≈ 5.0 – 6.0.
Nd3+: The titrand solution consisting of 0.801 mL of 9.82 mM Nd(ClO4)3 at p[H+] = 1.61 was blended with 1.176 mL of titrant solution containing 9.91 mM Nd3+ and 24.58 mM H4pypa-peg in with p[H+] ≈ 3.0 – 4.0.
Am3+: The titrand solution consisting of 0.806 mL of 0.791 mM Am(ClO4)3 at p[H+] = 1.41 was blended with 0.787 mL of titrant solution containing 0.801 mM Am3+ and 15.09 mM H4pypa-peg at p[H+] ≈ 5 – 6.
Cm3+: The titrand solution consist ing of 0.809 mL of 1.00 mM Cm(ClO4)3 at p[H+] = 1.34 was […]

The mark [7] stands for this setting: in-batch spectrophotometric competition at 25 °C, not evaluated at constant I = 0.16 M NaCl.
[8] abbreviates: potentiometric titrations, I = 0.16 M NaCl, uncertainties 1σ.

Structures are written as SMILES. Read-outs that look alike come from different tables or passages of the source. Marks after values point to notes of the source that are not given here.

`O=C(O)CN(Cc1cccc(CN(CC(=O)O)Cc2cccc(C(=O)O)n2)n1)Cc1cccc(C(=O)O)n1` [H4pypa]: the “logK111, La” value in data set [1] (setting [7]) is on record as 3.24 (5)*. For the same compound, in data set [1] (setting [8]), the “logβ101 (ML), La” value is reported as 19.54 (2). For the same compound, the “logK111, Lu” value in data set [2] (setting [7]) is recorded as 3.60 (6)*. Moreover, the “logβ101 (ML), Lu” value in data set [2] (setting [8]) was 22.20 (2). Besides, in data set [3], the “pKa H2L2-” value is listed as 6.78 (1), the “pKa H3L-” value is 3.69 (1), the “pKa H4L(aq)” value was 3.02 (1) and the “pKa H5L+” value is 2.23 (2). Further, in data set [3], the “pKa H6L2+” value is on record as 2.06 (6), the “pKa H7L3+” value was 1.70 (2) and the “pKa HL3-” value is listed as 7.78 (1). Also, the “cross-lanthanide stability increase for ML- complexes” value in data set [4] worked out at 1000 fold.
Broadly, the pKa is the negative logarithm of the acid dissociation constant. For the compound `O=C(O)CN(CCN(CC(=O)O)CC(=O)O)CC(=O)O` [H4edta, ethylenediamine-N,N,N′,N′-tetraacetic acid], the pKa turned out to be 6.23 in data set [5] (I = 2.0 M (Na+/H+)ClO4 (Table 2), read-out: pKa H2L2-); 2.48 in data set [5] (I = 2.0 M (Na+/H+)ClO4 (Table 2), read-out: pKa H3L-); 2.08 in data set [5] (I = 2.0 M (Na+/H+)ClO4 (Table 2), read-out: pKa H4L(aq)); 8.71 in data set [5] (I = 2.0 M (Na+/H+)ClO4 (Table 2), read-out: pKa HL3-); 6.45 in data set [5] (I = 2.0 M (Na+/H+)ClO4 at 20.0 °C, read-out: pKa H2L species); 2.49 in data set [5] (I = 2.0 M (Na+/H+)ClO4 at 20.0 °C, read-out: pKa H3L species). Moreover, the pKa in data set [5] (I = 2.0 M (Na+/H+)ClO4 at 20.0 °C, read-out: pKa H4L species) was found to be 2.02; in data set [5] (I = 2.0 M (Na+/H+)ClO4 at 20.0 °C, read-out: pKa HL species) it was 8.81. Besides, the “logβ101 (ML), Nd” value in data set [6] is 14.66(1).

These data come from PMC10587169, “Tuning aminopolycarboxylate chelators for efficient complexation of trivalent actinides” (Scientific Reports, 2023).
